Where a SMILES comes first, the peptide text is derived from it.

The target of this experiment is human KISS1R (Homo sapiens, UniProt Q969F8). Kind of experiment: Receptor binding assay, competition against [125I]KP-54 in CHO-KISS1R membranes. The following applies: SEM.
human KISS1R, sequence (Q969F8 whole entry): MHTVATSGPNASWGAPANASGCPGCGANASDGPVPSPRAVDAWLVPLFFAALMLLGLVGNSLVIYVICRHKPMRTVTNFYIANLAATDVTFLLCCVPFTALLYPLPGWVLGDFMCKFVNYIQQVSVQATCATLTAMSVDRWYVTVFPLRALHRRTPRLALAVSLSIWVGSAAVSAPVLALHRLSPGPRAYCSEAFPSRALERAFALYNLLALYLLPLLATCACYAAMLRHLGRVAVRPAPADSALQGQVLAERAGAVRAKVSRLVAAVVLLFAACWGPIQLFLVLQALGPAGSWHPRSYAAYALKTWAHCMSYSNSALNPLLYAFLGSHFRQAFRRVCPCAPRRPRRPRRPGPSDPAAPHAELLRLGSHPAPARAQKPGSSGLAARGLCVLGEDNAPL
As to `CC[C@H](C)[C@H](NC(=O)CNC(=O)[C@H](Cc1ccccc1)NC(=O)[C@H](CO)NC(=O)[C@H](CC(N)=O)NC(=O)[C@H](Cc1c[nH]c2ccccc12)NC(=O)[C@H](CC(N)=O)NC(=O)[C@@H](N)Cc1ccc(O)cc1)C(=O)N[C@@H](CCCNC(=N)N)C(=O)N[C@@H](Cc1ccccc1)C(N)=O` [ANA16] (H-YNWNSFGIRF-NH2), the IC50 is 0.0399 µM. For `CC(C)C[C@H](NC(=O)CNC(=O)[C@H](Cc1ccccc1)NC(=O)[C@H](CO)NC(=O)[C@H](CC(N)=O)NC(=O)[C@H](Cc1c[nH]c2ccccc12)NC(=O)[C@H](CC(N)=O)NC(=O)[C@@H](N)Cc1ccc(O)cc1)C(=O)N[C@@H](C)C(=O)N[C@@H](Cc1ccccc1)C(N)=O` [ANA9] (H-YNWNSFGLAF-NH2) the value was 0.0423 µM. In the case of `CC(C)C[C@H](NC(=O)CNC(=O)[C@H](Cc1ccc(O)cc1)NC(=O)[C@H](CO)NC(=O)[C@H](CC(N)=O)NC(=O)[C@H](Cc1c[nH]c2ccccc12)NC(=O)[C@H](CC(N)=O)NC(=O)[C@@H](N)Cc1ccc(O)cc1)C(=O)N[C@@H](CCCNC(=N)N)C(=O)N[C@@H](Cc1ccccc1)C(N)=O` [ANA15] (H-YNWNSYGLRF-NH2) it was 0.0875 µM; in that of `CC(C)C[C@H](NC(=O)CNC(=O)[C@H](Cc1ccccc1)NC(=O)[C@H](CO)NC(=O)[C@H](CC(N)=O)NC(=O)[C@H](Cc1c[nH]c2ccccc12)NC(=O)[C@H](CC(=O)O)NC(=O)[C@@H](N)Cc1ccc(O)cc1)C(=O)N[C@@H](CCCNC(=N)N)C(=O)N[C@@H](Cc1ccccc1)C(N)=O` [ANA12] (H-YDWNSFGLRF-NH2), 0.0291 µM; in that of `CC(C)C[C@H](NC(=O)CNC(=O)[C@@H](Cc1ccccc1)NC(=O)[C@H](CO)NC(=O)[C@H](CC(N)=O)NC(=O)[C@H](Cc1c[nH]c2ccccc12)NC(=O)[C@H](CC(N)=O)NC(=O)[C@@H](N)Cc1ccc(O)cc1)C(=O)N[C@@H](CCCNC(=N)N)C(=O)N[C@@H](Cc1ccccc1)C(N)=O` [ANA20], 0.253 µM. The molecule `CC(C)C[C@H](NC(=O)CNC(=O)[C@H](Cc1ccccc1)NC(=O)[C@H](CO)NC(=O)[C@H](CC(N)=O)NC(=O)[C@H](Cc1c[nH]c2ccccc12)NC(=O)[C@H](CC(N)=O)NC(=O)[C@@H](N)Cc1ccc(O)cc1)C(=O)N[C@@H](CCCCN)C(=O)N[C@@H](Cc1ccccc1)C(N)=O` [ANA17] (H-YNWNSFGLKF-NH2) had an IC50 of 0.0098 µM. For `CC(C)C[C@H](NC(=O)CNC(=O)[C@H](Cc1ccccc1)NC(=O)[C@@H](NC(=O)[C@H](CC(N)=O)NC(=O)[C@H](Cc1c[nH]c2ccccc12)NC(=O)[C@H](CC(N)=O)NC(=O)[C@@H](N)Cc1ccc(O)cc1)[C@@H](C)O)C(=O)N[C@@H](CCCNC(=N)N)C(=O)N[C@@H](Cc1ccccc1)C(N)=O` [ANA14] (H-YNWNTFGLRF-NH2) the value was 0.0023 µM. In the case of `CC(C)C[C@H](NC(=O)CNC(=O)[C@H](Cc1ccccc1)NC(=O)[C@H](CO)NC(=O)[C@H](CC(=O)O)NC(=O)[C@H](Cc1c[nH]c2ccccc12)NC(=O)[C@H](CC(N)=O)NC(=O)[C@@H](N)Cc1ccc(O)cc1)C(=O)N[C@@H](CCCNC(=N)N)C(=O)N[C@@H](Cc1ccccc1)C(N)=O` [ANA13] (H-YNWDSFGLRF-NH2) it was 0.14 µM; in that of `CC(C)C[C@H](NC(=O)CNC(=O)[C@H](Cc1ccccc1)NC(=O)[C@H](C)NC(=O)[C@H](CC(N)=O)NC(=O)[C@H](Cc1c[nH]c2ccccc12)NC(=O)[C@H](CC(N)=O)NC(=O)[C@@H](N)Cc1ccc(O)cc1)C(=O)N[C@@H](CCCNC(=N)N)C(=O)N[C@@H](Cc1ccccc1)C(N)=O` [ANA5] (H-YNWNAFGLRF-NH2), 0.0008 µM. In the case of `CC(C)C[C@H](NC(=O)CNC(=O)[C@H](Cc1ccccc1)NC(=O)[C@H](CO)NC(=O)[C@H](CC(N)=O)NC(=O)[C@H](Cc1c[nH]c2ccccc12)NC(=O)[C@H](CC(N)=O)NC(=O)[C@@H](N)Cc1ccc(O)cc1)C(=O)N[C@@H](CCCNC(=N)N)C(=O)N[C@@H](Cc1c[nH]cn1)C(N)=O` [ANA18] (H-YNWNSFGLRH-NH2) it was 0.378 µM; in that of `C[C@H](NC(=O)CNC(=O)[C@H](Cc1ccccc1)NC(=O)[C@H](CO)NC(=O)[C@H](CC(N)=O)NC(=O)[C@H](Cc1c[nH]c2ccccc12)NC(=O)[C@H](CC(N)=O)NC(=O)[C@@H](N)Cc1ccc(O)cc1)C(=O)N[C@@H](CCCNC(=N)N)C(=O)N[C@@H](Cc1ccccc1)C(N)=O` [ANA8] (H-YNWNSFGARF-NH2), 0.0774 µM. `CC(C)C[C@H](NC(=O)CNC(=O)[C@H](Cc1ccccc1)NC(=O)[C@H](CO)NC(=O)[C@H](CC(N)=O)NC(=O)[C@H](Cc1c[nH]c2ccccc12)NC(=O)[C@H](C)NC(=O)[C@@H](N)Cc1ccc(O)cc1)C(=O)N[C@@H](CCCNC(=N)N)C(=O)N[C@@H](Cc1ccccc1)C(N)=O` [ANA2] (H-YAWNSFGLRF-NH2) came in with an IC50 of 0.145 µM.

In the case of `CC(C)C[C@H](NC(=O)CNC(=O)[C@H](Cc1ccccc1)NC(=O)[C@H](CO)NC(=O)[C@H](CC(N)=O)NC(=O)[C@H](Cc1c[nH]c2ccccc12)NC(=O)[C@H](CC(N)=O)NC(=O)[C@@H](N)Cc1ccc(O)cc1)C(=O)N[C@@H](CCCNC(=N)N)C(=O)N[C@@H](Cc1ccccc1)C(N)=O` [KP-10, kisspeptin-10, reference compound], the IC50 was found to be 0.001 µM.

`CC(C)C[C@H](NC(=O)CNC(=O)[C@H](Cc1ccccc1)NC(=O)[C@H](CO)NC(=O)[C@H](CC(N)=O)NC(=O)[C@H](Cc1c[nH]c2ccccc12)NC(=O)[C@H](CC(N)=O)NC(=O)[C@H](C)N)C(=O)N[C@@H](CCCNC(=N)N)C(=O)N[C@@H](Cc1ccccc1)C(N)=O` [ANA1] (H-ANWNSFGLRF-NH2) returned an IC50 of 0.0232 µM. In the case of `CC(C)C[C@H](NC(=O)[C@H](C)NC(=O)[C@H](Cc1ccccc1)NC(=O)[C@H](CO)NC(=O)[C@H](CC(N)=O)NC(=O)[C@H](Cc1c[nH]c2ccccc12)NC(=O)[C@H](CC(N)=O)NC(=O)[C@@H](N)Cc1ccc(O)cc1)C(=O)N[C@@H](CCCNC(=N)N)C(=O)N[C@@H](Cc1ccccc1)C(N)=O` [ANA7] (H-YNWNSFALRF-NH2) it was 0.0046 µM; in that of `CC(C)C[C@H](NC(=O)CNC(=O)[C@H](Cc1ccccc1)NC(=O)[C@H](CO)NC(=O)[C@H](CC(N)=O)NC(=O)[C@H](Cc1c[nH]c2ccccc12)NC(=O)[C@H](CC(N)=O)NC(=O)[C@H](N)Cc1ccc(O)cc1)C(=O)N[C@@H](CCCNC(=N)N)C(=O)N[C@@H](Cc1ccccc1)C(N)=O` [ANA19], 0.0036 µM; in that of `CC(C)C[C@H](NC(=O)CNC(=O)[C@H](Cc1ccccc1)NC(=O)[C@H](CO)NC(=O)[C@H](CC(N)=O)NC(=O)[C@H](Cc1c[nH]c2ccccc12)NC(=O)[C@H](CC(N)=O)NC(=O)[C@@H](N)Cc1ccccc1)C(=O)N[C@@H](CCCNC(=N)N)C(=O)N[C@@H](Cc1ccccc1)C(N)=O` [ANA11] (H-FNWNSFGLRF-NH2), 0.0035 µM. In the case of `CC(C)C[C@H](NC(=O)CNC(=O)[C@H](Cc1ccccc1)NC(=O)[C@H](CO)NC(=O)[C@H](CC(N)=O)NC(=O)[C@H](Cc1c[nH]c2ccccc12)NC(=O)[C@H](CC(N)=O)NC(=O)[C@@H](N)Cc1ccc(O)cc1)C(=O)N[C@@H](CCCNC(=N)N)C(=O)N[C@H](Cc1ccccc1)C(N)=O` [ANA21], the IC50 amounted to 0.447 µM.

`CC(C)C[C@H](NC(=O)CNC(=O)[C@H](Cc1ccccc1)NC(=O)[C@H](CO)NC(=O)[C@H](C)NC(=O)[C@H](Cc1c[nH]c2ccccc12)NC(=O)[C@H](CC(N)=O)NC(=O)[C@@H](N)Cc1ccc(O)cc1)C(=O)N[C@@H](CCCNC(=N)N)C(=O)N[C@@H](Cc1ccccc1)C(N)=O` [ANA4] (H-YNWASFGLRF-NH2) yielded an IC50 of 0.0435 µM. For `CC(C)C[C@H](NC(=O)CNC(=O)[C@H](Cc1ccccc1)NC(=O)[C@H](CO)NC(=O)[C@H](CC(N)=O)NC(=O)[C@H](C)NC(=O)[C@H](CC(N)=O)NC(=O)[C@@H](N)Cc1ccc(O)cc1)C(=O)N[C@@H](CCCNC(=N)N)C(=O)N[C@@H](Cc1ccccc1)C(N)=O` [ANA3] (H-YNANSFGLRF-NH2), the IC50 amounted to 0.0027 µM. Molecule `CC(C)C[C@H](NC(=O)CNC(=O)[C@H](C)NC(=O)[C@H](CO)NC(=O)[C@H](CC(N)=O)NC(=O)[C@H](Cc1c[nH]c2ccccc12)NC(=O)[C@H](CC(N)=O)NC(=O)[C@@H](N)Cc1ccc(O)cc1)C(=O)N[C@@H](CCCNC(=N)N)C(=O)N[C@@H](Cc1ccccc1)C(N)=O` [ANA6] (H-YNWNSAGLRF-NH2) displayed an IC50 of 0.11 µM.

For the origin of these results see paper PMC2822479 (American Journal of Physiology - Endocrinology and …, 2009).
